US10183008B2, “Treatment of prolonged status epilepticus” (University of South Carolina, priority 2011, dated 2019)

Experiments:
[1] = tested on: lithium-pilocarpine model of S.E.; assay: Lithium-pilocarpine model of status epilepticus, behavioral seizure scoring (Racine scale); type: in vivo, rat; conditions: for termination of brief behavioral convulsions: postnatal 20-25 day male rats, drug i.p. at onset of first stage 3 convulsion, score 15 min after
Method: The ED50 was determined based on the fit of the sigmoidal dose-response curve.
Experiments were performed on male rats age 5-65 days. SE was induced using lithium pilocarpine. Brief SE was defined as the onset of stage 3 seizures. Prolonged SE was defined as 45 minutes of SE following the first stage 3 seizure.
Status epilepticus was induced in male Sprague Dawley rats (5-65 days old; Harlan Sprague Dawley, Indianapolis, Ind.) by intraperitoneal injection of lithium chloride (LiCl) at 127 mg/kg followed 15-20 hr later by scopolamine methylbromide (2 mg/kg) and then pilocarpine at 60 mg/kg. After pilocarpine injection, the rats were observed continuously for occurrence of behavioral seizures. Seizures were scored according to the Racine scale with slight modifications: 0-normal behavior; 1-immobile, staring, curled-up posture; 2-automatisms: repetitive blinking, chewing, headbobbing, vibrissae twitching, scratching, face-washing; 3-forelimb/hindlimb myoclonic jerking, head tremor; 4-rearing, whole body clonus; 5-loss of posture, rearing and falling. EEG recordings, have established that the cortical electrographic onset of SE corresponds to the onset of forelimb clonus, or stage 3 seizures. Therefore, diazepam or stiripentol was administered either at the onset of S3 seizures (brief SE) or 45 min after S3 seizure onset (prolonged SE). The seizure scores were taken continuously, but specifically 15 mins after the first S3 seizure, and 15 mins after treatment. The scores represented in the data were recorded 15 minutes following treatment. Solutions of lithium, scopolamine, pilocarpine and stiripentol were made fresh on the day of the experiments. Lithium, scopolamine and pilocarpine were dissolved in 0.9% saline. Stiripentol was dissolved in 20% propylene glycol and 80% ethanol. Diazepam was purchased commercially in a solution of 10% propylene glycol and 80% ethanol. All drugs were administered via intraperitoneal (i.p) injection.

[2] = tested on: tonic inhibition (GABAergic tonic current); assay: Brain slice whole-cell electrophysiology: tonic current in dentate granule cells; type: cell-based, rat; conditions: for effect on tonic inhibition: 1 μM DZP, 100 μM STP
[3] = tested on: prolonged SE; conditions: 45 minutes after onset; cited from earlier work
[4] = tested on: GABAAR subunit combinations; conditions: STP 100 μM, GABA 0.3 μM, n=5-9, HEK-293T; cited from earlier work

| Structure (SMILES) | termination of brief behavioral convulsions [1] | pharmacoresistance following prolonged SE (shift of ED50 for seizure termination) ([1]; prolonged SE (45 min after stage 3 onset) vs brief SE) | effect on tonic inhibition [2] | potentiation of tonic current during prolonged SE ([2]; prolonged SE, DZP 1 μM, STP 100 μM, n=3-4) | fold decrease in efficacy at terminating prolonged SE [3] | anticonvulsant effect in 60-65 compared to 20-25 day old rats ([1]; age comparison) | effect on GABA current [4] |
| --- | --- | --- | --- | --- | --- | --- | --- |
| CN1C(=O)CN=C(c2ccccc2)c2cc(Cl)ccc21 [DZP, diazepam] | terminate brief behavioral convulsions | develops pharmacoresistance | increase tonic inhibition | less effective at potentiating tonic current | 9-10 fold |  |  |
| CC(C)(C)C(O)/C=C/c1ccc2c(c1)OCO2 (stereo not drawn) [STP, 1-(3,4-methylenedioxyphenyl)-4,4-dimethylpent-1-en-3-ol] | terminate brief behavioral convulsions |  | increase tonic inhibition |  |  | reduced | increases GABA (0.3 μM) current at all tested GABAAR subunit combinations |
